Assay results published in patent US11713335B2, “Aminocoumarin compounds and methods of their use” (President and Fellows of Harvard College, priority 2018, dated 2023).
In brackets after ≈: the same amount, converted by molar mass. Read-outs that look alike come from different tables or passages of the source.

What was measured:
WT E. coli = test: Minimal inhibitory concentration in wild-type E. coli; assay type: cell-based, Escherichia coli; conditions: wild-type E. coli, 37° C., 16 hours, read-out: MIC (μM) in WT E. coli
Summary of the method: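 Broth microdilution: saturated LB overnight culture diluted 1:100 twice, compound serially two-fold diluted across the plate from DMSO stock. Static incubation 16 hours at 37° C, OD600 read; MIC taken as lowest concentration inhibiting growth.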

S. aureus RN4220 = test: Minimal inhibitory concentration, S. aureus RN4220; assay type: cell-based; conditions: 16 hour minimal inhibitory concentration at 37° C., read-out: MIC (μM) S. aureus RN4220
Summary of the method: (§1)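 MIC, in µM, taken as the lowest compound concentration preventing growth by OD600 after 16 h static incubation at 37 °C. Compound was twofold serially diluted in bacteria grown overnight in LB, or TSA for S. aureus, and diluted 1:100 twice.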

S. aureus MW2 = test: Minimal inhibitory concentration, S. aureus MW2; assay type: cell-based; conditions: 16 hour minimal inhibitory concentration at 37° C., read-out: MIC (μM) S. aureus MW2 (MRSA)
Summary of the method: as §1

E. cloacae 13047 = test: Minimal inhibitory concentration, E. cloacae 13047; assay type: cell-based; conditions: 16 hour minimal inhibitory concentration at 37° C., read-out: MIC (μM) E. cloacae 13047
Summary of the method: as §1

A. baumannii 19606 = test: Minimal inhibitory concentration, A. baumannii 19606; assay type: cell-based; conditions: 16 hour minimal inhibitory concentration at 37° C., read-out: MIC (μM) A. baumannii 19606
Summary of the method: as §1

K. pneumoniae 700721 = test: Minimal inhibitory concentration, K. pneumoniae 700721; assay type: cell-based; conditions: 16 hour minimal inhibitory concentration at 37° C., read-out: MIC (μM) K. pneumoniae 700721
Summary of the method: as §1

E. coli MC4100 = test: Minimal inhibitory concentration, E. coli MC4100; assay type: cell-based; conditions: 16 hour minimal inhibitory concentration at 37° C., read-out: MIC (μM) E. coli MC4100 ara+
Summary of the method: as §1

E. coli 25922 = test: Minimal inhibitory concentration, E. coli 25922; assay type: cell-based; conditions: 16 hour minimal inhibitory concentration at 37° C., read-out: MIC (μM) E. coli 25922
Summary of the method: as §1

[1] = Staphylococcus aureus, RN4220, 16 h
[2] = Staphylococcus aureus, MRSA, 16 h
[3] = Acinetobacter baumannii, 19606, 16 h

Compound | MIC (WT E. coli; Escherichia coli) | MIC (S. aureus RN4220; [1]) | MIC (S. aureus MW2; [2]) | MIC (E. cloacae 13047; Enterobacter cloacae, 13047) | MIC (A. baumannii 19606; [3]) | MIC (K. pneumoniae 700721; Klebsiella pneumoniae, 700721) | MIC (E. coli MC4100; Escherichia coli, MC4100, 16 h) | MIC (E. coli 25922; Escherichia coli, 25922, 16 h) | MIC (WT E. coli) | MIC (S. aureus RN4220) | MIC (S. aureus MW2) | MIC (E. cloacae 13047) | MIC (A. baumannii 19606) | MIC (K. pneumoniae 700721) | MIC (E. coli MC4100) | MIC (E. coli 25922)
CO[C@@H]1[C@@H](OC(N)=O)[C@@H](O)[C@H](Oc2ccc3c(O)c(NC(=O)c4cccc(-c5ccc(N(C)C)cc5)c4)c(=O)oc3c2C)OC1(C)C [Compound 25] | > 300 µM | 0.96 µM (≈ 0.622 µg/mL) | 0.96 µM (≈ 0.622 µg/mL) | > 100 µM | 19 µM (≈ 12.3 µg/mL) | > 100 µM | > 200 µM | > 200 µM |  |  |  |  |  |  |  | 
CO[C@@H]1[C@@H](OC(N)=O)[C@@H](O)[C@H](Oc2ccc3c(O)c(NC(=O)c4cc(O)c(O)c(-c5ccc(F)cc5)c4)c(=O)oc3c2C)OC1(C)C [Compound 95] |  |  |  |  |  |  |  |  | 38 µM (≈ 24.9 µg/mL) | 38 µM (≈ 24.9 µg/mL) | 38 µM (≈ 24.9 µg/mL) | >100 µM | >50 µM | >100 µM | 38 µM (≈ 24.9 µg/mL) | 38 µM (≈ 24.9 µg/mL)
CO[C@@H]1[C@@H](OC(N)=O)[C@@H](O)[C@H](Oc2ccc3c(O)c(NC(=O)c4cccc(-c5cccc(C(C)C)c5)c4)c(=O)oc3c2C)OC1(C)C [Compound 61] |  |  |  |  |  |  |  |  | 59 µM (≈ 38.2 µg/mL) | 0.39 µM (≈ 0.252 µg/mL) | 0.19 µM (≈ 0.123 µg/mL) | >100 µM | 10 µM (≈ 6.47 µg/mL) | >100 µM | 59 µM (≈ 38.2 µg/mL) | 77 µM (≈ 49.8 µg/mL)
CO[C@@H]1[C@@H](OC(N)=O)[C@@H](O)[C@H](Oc2ccc3c(O)c(NC(=O)/C=C/c4ccccc4)c(=O)oc3c2C)OC1(C)C [Compound 27] | > 300 µM | 45 µM (≈ 25 µg/mL) | 23 µM (≈ 12.8 µg/mL) | > 100 µM | > 50 µM | > 100 µM | > 200 µM | > 200 µM |  |  |  |  |  |  |  | 
CO[C@@H]1[C@@H](OC(N)=O)[C@@H](O)[C@H](Oc2ccc3c(O)c(NC(=O)C45CC6CC(CC(C6)C4)C5)c(=O)oc3c2C)OC1(C)C [Compound 14] | > 300 µM | 43 µM (≈ 25.2 µg/mL) | 21 µM (≈ 12.3 µg/mL) | > 100 µM | > 50 µM | > 100 µM | > 200 µM | > 200 µM |  |  |  |  |  |  |  | 
CO[C@@H]1[C@@H](OC(N)=O)[C@@H](O)[C@H](Oc2ccc3c(O)c(NC(=O)c4cccc(-c5ccc(Cl)cc5)c4)c(=O)oc3c2C)OC1(C)C [Compound 33] | 18 µM (≈ 11.5 µg/mL) | 1.96 µM (≈ 1.25 µg/mL) | 0.98 µM (≈ 0.626 µg/mL) | > 100 µM | 39 µM (≈ 24.9 µg/mL) | > 100 µM | 18 µM (≈ 11.5 µg/mL) | 20 µM (≈ 12.8 µg/mL) |  |  |  |  |  |  |  | 
COc1cc(C(=O)Nc2c(O)c3ccc(O[C@@H]4OC(C)(C)[C@H](OC)[C@@H](OC(N)=O)[C@H]4O)c(C)c3oc2=O)cc(OC)c1OC [Compound 11] | > 300 µM | > 100 µM | > 100 µM | > 100 µM | > 50 µM | > 100 µM | > 200 µM | > 200 µM |  |  |  |  |  |  |  | 
CO[C@@H]1[C@@H](OC(N)=O)[C@@H](O)[C@H](Oc2ccc3c(O)c(NC(=O)c4cccc(-c5ccc(C(C)C)cc5)c4)c(=O)oc3c2C)OC1(C)C [Compound 48] | 89 µM (≈ 57.6 µg/mL) | 0.77 µM (≈ 0.498 µg/mL) | 0.48 µM (≈ 0.31 µg/mL) | > 100 µM | 19 µM (≈ 12.3 µg/mL) | 77 µM (≈ 49.8 µg/mL) | 89 µM (≈ 57.6 µg/mL) | 77 µM (≈ 49.8 µg/mL) |  |  |  |  |  |  |  | 
CO[C@@H]1[C@@H](OC(N)=O)[C@@H](O)[C@H](Oc2ccc3c(O)c(NC(=O)c4cccc(-c5ccccc5C(C)C)c4)c(=O)oc3c2C)OC1(C)C [Compound 49] |  |  |  |  |  |  |  |  | >300 µM | 10 µM (≈ 6.47 µg/mL) | 5 µM (≈ 3.23 µg/mL) | >100 µM | >50 µM | >100 µM | >200 µM | >200 µM
CO[C@@H]1[C@@H](OC(N)=O)[C@@H](O)[C@H](Oc2ccc3c(O)c(NC(=O)c4cc(-c5ccc6ccccc6c5)cc(O)c4O)c(=O)oc3c2C)OC1(C)C [Compound 98] |  |  |  |  |  |  |  |  | >300 µM | 18 µM (≈ 12.4 µg/mL) | 18 µM (≈ 12.4 µg/mL) | >100 µM | 36 µM (≈ 24.7 µg/mL) | >100 µM | >200 µM | >200 µM
CO[C@@H]1[C@@H](OC(N)=O)[C@@H](O)[C@H](Oc2ccc3c(O)c(NC(=O)c4cccc(-c5ccccc5[N+](=O)[O-])c4)c(=O)oc3c2C)OC1(C)C [Compound 64] |  |  |  |  |  |  |  |  | >300 µM | 77 µM (≈ 50 µg/mL) | 39 µM (≈ 25.3 µg/mL) | >100 µM | >50 µM | >100 µM | >200 µM | >200 µM
CO[C@@H]1[C@@H](OC(N)=O)[C@@H](O)[C@H](Oc2ccc3c(O)c(NC(=O)C4CC4)c(=O)oc3c2C)OC1(C)C [Compound 13] | > 300 µM | > 100 µM | > 100 µM | > 100 µM | > 50 µM | > 100 µM | > 200 µM | > 200 µM |  |  |  |  |  |  |  | 
CO[C@@H]1[C@@H](OC(N)=O)[C@@H](O)[C@H](Oc2ccc3c(O)c(NC(=O)c4ccc[nH]4)c(=O)oc3c2C)OC1(C)C [Compound 15] | > 300 µM | > 100 µM | > 100 µM | > 100 µM | > 50 µM | > 100 µM | > 200 µM | > 200 µM |  |  |  |  |  |  |  | 
CO[C@@H]1[C@@H](OC(N)=O)[C@@H](O)[C@H](Oc2ccc3c(O)c(NC(=O)c4cccc(-c5c(C)cccc5C)c4)c(=O)oc3c2C)OC1(C)C [Compound 21] | 133 µM (≈ 84.1 µg/mL) | 10 µM (≈ 6.33 µg/mL) | 10 µM (≈ 6.33 µg/mL) | > 100 µM | > 50 µM | > 100 µM | 133 µM (≈ 84.1 µg/mL) | > 200 µM |  |  |  |  |  |  |  | 
CO[C@@H]1[C@@H](OC(N)=O)[C@@H](O)[C@H](Oc2ccc3c(O)c(NC(=O)CCc4ccccc4)c(=O)oc3c2C)OC1(C)C [Compound 43] | > 300 µM | > 100 µM | > 100 µM | > 100 µM | > 50 µM | > 100 µM | > 200 µM | > 200 µM |  |  |  |  |  |  |  | 
CO[C@@H]1[C@@H](OC(N)=O)[C@@H](O)[C@H](Oc2ccc3c(O)c(NC(=O)c4cccc(-c5ccc(O)c(O)c5)c4)c(=O)oc3c2C)OC1(C)C [Compound 94] |  |  |  |  |  |  |  |  | >300 µM | 20 µM (≈ 12.7 µg/mL) | 20 µM (≈ 12.7 µg/mL) | >100 µM | >50 µM | >100 µM | >200 µM | >200 µM
